The record followed here is patent US8372336B2, “Polymeric corrosion inhibitors” (Akzo Nobel Chemicals International B.V., priority 2009, dated 2013).

A short description of this assay: Bubble test, corrosion inhibition performance in brine (LPR). The conditions noted are these: Forties synthetic brine, 55° C., CO2 saturated. The procedure: Corrosion Inhibition Performance in Brine
The tests were carried out using the well-known “bubble test” method, see for instance the discussion in NACE International, Vol. 46, No. 5, pp 46-51 (May 2007), where the corrosion rate is monitored by linear polarisation (LPR). First a baseline corrosion rate in the medium is established, and then corrosion rates with different amounts of inhibitor added are measured.
The detailed conditions for the tests were as follows:
CO2 CO2 Saturated at ambient pressure (˜0.9 bara partial pressure)
Solution 100% Typical “Forties” (North Sea water) synthetic brine as shown below:
• Chloride=42.539 mg/l • Sulphate=0 mg/l • Barium=173 mg/l • Calcium=1.979 mg/l • Strontium=351 mg/l • Magnesium=377 mg/l • Sodium=24.973 mg/l • Potassium=341 mg/l • Bicarbonate=200 mg/l Electrode Fabricated from AISI 1018 (UNS G10180), polished to 600 grit finish, degreased, rinsed, and dried Inhibitor Concentration 4 hour precorrosion without inhibitor, then dose with 10 or 20 mg/kg of inhibitor and evaluate corrosion rate for at least 8 h, then add inhibitor so that the next level of total inhibitor dosage is reached according to Table 1. After each addition the corrosion rate is measured for at least 8 h. Gas and partial Ambient pressure test. Maximum partial pressure 1 pressure bara (less saturated water vapour pressure at test temperature). Corrosion Monitoring LPR±10 mV step perturbation with a 2-minute time constant. A Stearn-Geary constant of 25 mV was used to calculate corrosion rates from LPR data. Corrosion rates were monitored throughout each test with a measurement taken every 30 minutes. […] The corrosion inhibitor bases were formulated as follows prior to testing: 40% base product 4% glacial acetic acid 20% n-butanol 36% water The % protection was calculated from the following equation: % protection=(1−(x/y))*100 wherein x=corrosion rate in the presence of corrosion inhibitor (mm/year) • y=corrosion rate in the absence of corrosion inhibitor (mm/year)

Consider “C12-C16 Coco benzyl quaternary amine [Quaternary amine*]”, for which the “% Protection” value reads like this: (20 ppm inhibitor) −28.3%; (50 ppm inhibitor) 38.0%; (100 ppm inhibitor) 97.7%.
